The values below come from paper PMC11394972 (International Journal of Molecular Sciences, 2024).

In the experiment the test system is MazF-mt3(Δ16–22). The format is biochemical, Mycobacterium tuberculosis. The conditions noted are these: FAM-labeled 13-nt RNA substrate; Figure 4B, Figure S9.

In the case of “MazE-mt3 α3–α4: peptide corresponding to the last two helices (α3-α4, Leu46-Trp82) of MazE-mt3; cocrystallized with MazF-mt3 (PDB 8ZWS) (LTGQIDRALESIHGTDEAEALAVANAYRVLETMDDEW)”, the “inhibitory effect against the loop-truncated MazF-mt3 enzyme compared with the full-length antitoxin” value is given as “strong inhibitory effect comparable to that of the full-length MazE-mt3”.
